In patent publication US20150160195A1, “HUMAN LIVER TUMOR CELL LINE AND METHOD OF AGENT SCREENING” (Industrial Technology Research Institute, priority 2013, published 2015):

How the values were obtained:
[1] = tested on: liver cancer; details: phase III of human clinical trials; cited from earlier work
[2] = tested on: human liver tumor cell line ITRI-H16; test: Cell viability of ITRI-H16 cells after 48-hour treatment, Alarmablue measurement assay; details: read-out: half maximal inhibitory concentration (IC50) in the ITRI-H16 cell line

IC50 [2]: ~14 µM
SMILES: CNC(=O)c1cc(Oc2ccc(NC(=O)Nc3ccc(Cl)c(C(F)(F)F)c3)cc2)ccn1 [Sorafenib]
extension of patient survival time [1]: three-month
